Assay results as given in ChEMBL document CHEMBL3091428, “Synthesis and initial biological evaluation of substituted 1-phenylamino-2-thio-4,5-dimethyl-1H-imidazole derivatives” (Bioorg Med Chem Lett, 2013).
Converted amounts (≈) assume the structure as drawn.

What was measured:
Format in all cases: functional
Pichia kudriavzevii = test: Antimicrobial activity against Candida krusei ATCC 6258 after 24 hrs by broth microdilution method; conditions: ATCC 6258, 24 h
Staphylococcus aureus = test: Antimicrobial activity against Staphylococcus aureus ATCC 25923 after 24 hrs by broth microdilution method; conditions: ATCC 25923, 24 h
Listeria monocytogenes = test: Antimicrobial activity against Listeria monocytogenes ATCC 19115 after 24 hrs by broth microdilution method; conditions: ATCC 19115, 24 h
Klebsiella pneumoniae = test: Antimicrobial activity against Klebsiella pneumoniae ATCC 13883 after 24 hrs by broth microdilution method; conditions: ATCC 13883, 24 h
Nakaseomyces glabratus = test: Antimicrobial activity against Candida glabrata ATCC 90030 after 24 hrs by broth microdilution method; conditions: ATCC 90030, 24 h
Escherichia coli [1] = test: Antimicrobial activity against Escherichia coli ATCC 25922 after 24 hrs by broth microdilution method; conditions: ATCC 25922, 24 h
Pseudomonas aeruginosa = test: Antimicrobial activity against Pseudomonas aeruginosa ATCC 27853 after 24 hrs by broth microdilution method; conditions: ATCC 27853, 24 h
Escherichia coli [2] = test: Antimicrobial activity against Escherichia coli ATCC 35218 after 24 hrs by broth microdilution method; conditions: ATCC 35218, 24 h
Enterococcus faecalis [3] = test: Antimicrobial activity against Enterococcus faecalis ATCC 29212 after 24 hrs by broth microdilution method; conditions: ATCC 29212, 24 h
Enterococcus faecalis [4] = test: Antimicrobial activity against Enterococcus faecalis ATCC 51299 after 24 hrs by broth microdilution method; conditions: ATCC 51299, 24 h
Candida albicans = test: Antimicrobial activity against Candida albicans ATCC 90028 after 24 hrs by broth microdilution method; conditions: ATCC 90028, 24 h

Compound | MIC (Pichia kudriavzevii) [µg/mL] | MIC (Staphylococcus aureus) [µg/mL] | MIC (Listeria monocytogenes) [µg/mL] | MIC (Klebsiella pneumoniae) [µg/mL] | MIC (Nakaseomyces glabratus) [µg/mL] | MIC (Escherichia coli [1]) [µg/mL] | MIC (Pseudomonas aeruginosa) [µg/mL] | MIC (Escherichia coli [2]) [µg/mL] | MIC (Enterococcus faecalis [3]) [µg/mL] | MIC (Enterococcus faecalis [4]) [µg/mL] | MIC (Candida albicans) [µg/mL]
Cc1ccc(Nn2c(SCC(=O)c3ccc(Cl)cc3)nc(C)c2C)cc1 | 200 (≈ 518 µM) | 800 (≈ 2070 µM) | 800 (≈ 2070 µM) | 800 (≈ 2070 µM) | 400 (≈ 1040 µM) | 400 (≈ 1040 µM) | 800 (≈ 2070 µM) | 800 (≈ 2070 µM) | 400 (≈ 1040 µM) | 400 (≈ 1040 µM) | 400 (≈ 1040 µM)
COc1ccc(Nn2c(SCC(=O)c3ccc(Cl)cc3)nc(C)c2C)cc1 | 400 (≈ 995 µM) | 400 (≈ 995 µM) | 400 (≈ 995 µM) | 400 (≈ 995 µM) | 400 (≈ 995 µM) | 400 (≈ 995 µM) | 800 (≈ 1990 µM) | 800 (≈ 1990 µM) | 400 (≈ 995 µM) | 800 (≈ 1990 µM) | 400 (≈ 995 µM)
Cc1ccc(Nn2c(SCC(=O)c3cccc(F)c3)nc(C)c2C)cc1 | 400 (≈ 1080 µM) | 800 (≈ 2170 µM) | 400 (≈ 1080 µM) | 400 (≈ 1080 µM) | 800 (≈ 2170 µM) | 800 (≈ 2170 µM) | 400 (≈ 1080 µM) | 800 (≈ 2170 µM) | 200 (≈ 541 µM) | 400 (≈ 1080 µM) | 800 (≈ 2170 µM)
COc1ccc(Nn2c(SCC(=O)c3cccc(F)c3)nc(C)c2C)cc1 | 400 (≈ 1040 µM) | 400 (≈ 1040 µM) | 400 (≈ 1040 µM) | 800 (≈ 2080 µM) | 400 (≈ 1040 µM) | 800 (≈ 2080 µM) | 400 (≈ 1040 µM) | 800 (≈ 2080 µM) | 400 (≈ 1040 µM) | 800 (≈ 2080 µM) | 400 (≈ 1040 µM)
COc1ccc(Nn2c(SCC(=O)c3ccc(F)cc3)nc(C)c2C)cc1 | 400 (≈ 1040 µM) | 800 (≈ 2080 µM) | 400 (≈ 1040 µM) | 800 (≈ 2080 µM) | 400 (≈ 1040 µM) | 800 (≈ 2080 µM) | 800 (≈ 2080 µM) | 800 (≈ 2080 µM) | 1600 (≈ 4150 µM) | 800 (≈ 2080 µM) | 400 (≈ 1040 µM)
Cc1ccc(Nn2c(SCC(=O)c3ccc(F)c(F)c3)nc(C)c2C)cc1 | 100 (≈ 258 µM) | 800 (≈ 2060 µM) | 800 (≈ 2060 µM) | 800 (≈ 2060 µM) | 400 (≈ 1030 µM) | 800 (≈ 2060 µM) | 800 (≈ 2060 µM) | 800 (≈ 2060 µM) | 400 (≈ 1030 µM) | 200 (≈ 516 µM) | 200 (≈ 516 µM)
COc1ccc(Nn2c(SCC(=O)c3cccc(OC)c3)nc(C)c2C)cc1 | 800 (≈ 2010 µM) | 800 (≈ 2010 µM) | 800 (≈ 2010 µM) | 800 (≈ 2010 µM) | 800 (≈ 2010 µM) | 800 (≈ 2010 µM) | 800 (≈ 2010 µM) | 800 (≈ 2010 µM) | 800 (≈ 2010 µM) | 200 (≈ 503 µM) | 800 (≈ 2010 µM)
COc1ccc(Nn2c(SCC(=O)c3ccc(Cl)c(Cl)c3)nc(C)c2C)cc1 | 800 (≈ 1830 µM) | 800 (≈ 1830 µM) | 800 (≈ 1830 µM) | 800 (≈ 1830 µM) | 800 (≈ 1830 µM) | 400 (≈ 917 µM) | 400 (≈ 917 µM) | 800 (≈ 1830 µM) | 400 (≈ 917 µM) | 800 (≈ 1830 µM) | 800 (≈ 1830 µM)
COc1ccc(Nn2c(SCC(=O)c3ccc(OC)c(OC)c3)nc(C)c2C)cc1 | 200 (≈ 468 µM) | 800 (≈ 1870 µM) | 800 (≈ 1870 µM) | 800 (≈ 1870 µM) | 400 (≈ 936 µM) | 800 (≈ 1870 µM) | 800 (≈ 1870 µM) | 800 (≈ 1870 µM) | 800 (≈ 1870 µM) | 1600 (≈ 3740 µM) | 200 (≈ 468 µM)
Cc1nc(SCC(=O)c2ccc(Cl)cc2)n(Nc2ccc(Cl)cc2)c1C | 400 (≈ 984 µM) | 800 (≈ 1970 µM) | 800 (≈ 1970 µM) | 800 (≈ 1970 µM) | 800 (≈ 1970 µM) | 800 (≈ 1970 µM) | 400 (≈ 984 µM) | 800 (≈ 1970 µM) | 800 (≈ 1970 µM) | 800 (≈ 1970 µM) | 800 (≈ 1970 µM)
Cc1ccc(Nn2c(SCC(=O)c3ccc(Cl)c(Cl)c3)nc(C)c2C)cc1 | 800 (≈ 1900 µM) | 800 (≈ 1900 µM) | 800 (≈ 1900 µM) | 800 (≈ 1900 µM) | 800 (≈ 1900 µM) | 400 (≈ 952 µM) | 800 (≈ 1900 µM) | 800 (≈ 1900 µM) | 400 (≈ 952 µM) | 400 (≈ 952 µM) | 800 (≈ 1900 µM)
COc1ccc(C(=O)CSc2nc(C)c(C)n2Nc2ccc(OO)cc2)cc1 | 400 (≈ 1000 µM) | 800 (≈ 2000 µM) | 800 (≈ 2000 µM) | 800 (≈ 2000 µM) | 800 (≈ 2000 µM) | 800 (≈ 2000 µM) | 800 (≈ 2000 µM) | 800 (≈ 2000 µM) | 800 (≈ 2000 µM) | 800 (≈ 2000 µM) | 400 (≈ 1000 µM)
COc1cccc(C(=O)CSc2nc(C)c(C)n2Nc2ccc(C)cc2)c1 | 200 (≈ 524 µM) | 800 (≈ 2100 µM) | 400 (≈ 1050 µM) | 800 (≈ 2100 µM) | 400 (≈ 1050 µM) | 800 (≈ 2100 µM) | 800 (≈ 2100 µM) | 200 (≈ 524 µM) | 800 (≈ 2100 µM) | 400 (≈ 1050 µM) | 400 (≈ 1050 µM)
Cc1nc(SCC(=O)c2cccc(F)c2)n(Nc2ccc(Cl)cc2)c1C | 400 (≈ 1030 µM) | 800 (≈ 2050 µM) | 200 (≈ 513 µM) | 800 (≈ 2050 µM) | 400 (≈ 1030 µM) | 400 (≈ 1030 µM) | 400 (≈ 1030 µM) | 800 (≈ 2050 µM) | 100 (≈ 256 µM) | 800 (≈ 2050 µM) | 400 (≈ 1030 µM)
